Laboratory results: PMC11672137, “High-Affinity Lectin Ligands Enable the Detection of Pathogenic Pseudomonas aeruginosa Biofilms: Implications for Diagnostics and Therapy” (JACS Au, 2024)
“And” between values parts separate entries of the source, which are not always exact repeats. Equal entries are not always repeated.

Experiments:
[1] = biological target: T1, LecA (Pseudomonas aeruginosa, UniProt Q05097); experiment: Isothermal titration calorimetry with LecA; type: binding; conditions: for -TΔS (ITC, average) / N (ITC stoichiometry, average) / ΔG (ITC, average) / ΔH (ITC, average): LecA, average ± s.d.
T1 construct: made in house
T1 sequence (Q05097 whole entry): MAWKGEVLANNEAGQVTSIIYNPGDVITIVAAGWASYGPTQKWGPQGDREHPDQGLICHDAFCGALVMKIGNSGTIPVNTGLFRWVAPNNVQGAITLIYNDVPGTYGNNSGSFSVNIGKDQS
Method: (§1) Next, binding of the optimized divalent ligand 17 and its synthetic precursor 16 to LecA was evaluated by fluorescence polarization-based (FP) assays,[47] SPR, and ITC. […] Therefore, fluorescent ligand 17 was analyzed in a direct binding experiment by FP. […] The dissociation constants for 16 were 47.2 ± 11.3 nM (ITC) and 47.8 ± 44.1 nM (steady-state SPR), while for 17, the values were 64.1 ± 31.1 nM and 79.3 ± 24.9 nM (steady-state SPR). For the SPR experiments, Kd was also determined by single-cycle kinetic analysis resulting in approximately five times higher affinity, but the data have limited reliability due to suboptimal fit for the kinetic curves (Figures S13B and S14).[58]−[60]
Figure 3 Evaluation of the optimized fluorescent ligand 17 and its synthetic precursor 16 in LecA binding using thermodynamic analysis by ITC. Data for one representative experiment are depicted. Averages and standard deviation from at least three independent experiments (*two independent experiments). TEXT PRINTED IN THE PICTURE: 16: ΔG [kJ/mol]: -41.9 ± 0.6*; ΔH [kJ/mol]: -89.3 ± 0.8*; -TΔS [kJ/mol]: 47.4 ± 1.4*; N: 0.47 ± 0.03*; Kd [nM]: 47.2 ± 11.3* | 17: ΔG [kJ/mol]: -41.4 ± 1.2; ΔH [kJ/mol]: -83.5 ± 3.2; -TΔS [kJ/mol]: 42.1 ± 4.3; N: 0.50 ± 0.03; Kd [nM]: 64.1 ± 31.1 […]
Isothermal titration calorimetry (ITC) was performed on an iTC200 (Malvern Panalytical) and the data were analyzed using Microcal Origin software (Malvern Panalytical).
LecA (50 µM) in the cell was titrated with ligand (100 µM or 200 µM) in TBS/Ca2+ buffer supplemented with 5% DMSO at 25 °C. Steep titration slopes achieved with the divalent ligands were the result of high amount of protein present and the high binding affinity of the ligand (high ‘value of c’).22 However, LecA protein concentration lower than 50 µM resulted in insufficient signal as a consequence of the low heat released upon binding.
Figure S15: ITC measurements of divalent alkyne ligand 16 with LecA performed in TBS/Ca2+ buffer with 5% […]
Figure S16: ITC measurements of divalent fluorescent ligand 17 with LecA performed in TBS/Ca2+ buffer with […]
50 µM LecA 50 µM LecA 50 µM LecA

[2] = biological target: T1, LecA; experiment: Surface plasmon resonance, LecA binding
Method: as §1, with “S14).[58]−[60] […]” for “S14).[58]−[60]”
Surface plasmon resonance experiments were performed on a BIACORE X100 instrument (GE Healthcare) at 25 °C as described by Zahorska et. al..2 Averages and standard deviations were calculated from three independent experiments. […]
Stability and LecA binding and inhibition of divalent LecA ligands
100 Expe rime ntal data 1:1 fi t 120 Expe rime ntal data 1:1 fi t
100 Expe rime ntal dataSame well1:1 fi t 80 Expe rime ntal data 1:1 fi t
-20 Time [s] -20 Times [s]
100 Expe rime ntal data 1:1 fi t 80 Expe rime ntal data 1:1 fi t mode l
-20 Time [s] -20 Time [s]
(§2) Figure S7: SPR of divalent LecA acylhydrazone ligand S36 and divalent fluorescent ligand S31. Sensorgrams obtained from SPR single-cycle kinetics experiments. Five different concentrations of each compound (0, 10, 50, 100, 200 nM) were sequentially injected to obtain the experimental sensorgrams (orange lines), which were then fitted by a 1:1 model (blue lines) on BIACORE evaluation software.
(also on this page, place not known: 561 and ZAA-116 ZAA-112 100012001400 Response [RU] Experimental fit 100012001400 Response [RU] Experimental fit 100012001400 Response [RU] Experimental fit Response [RU] Experimental fit Response [RU] Experimental fit model 100012001400 Response [RU] Experimental data 1:1 fit Same well) […]
0 kon koff kinetic equilibrium#
Figure S13:C Evaluation of the optimized fluorescent ligand Time (min)17 and its synthetic precursor Time (min)16 in LecA […]
binding assays. (A) Competitive binding (top) and direct binding (bottom) by fluorescence polarization. (B) Kinetic and equilibrium analysis by SPR (0.20 #values with limited reliability, equilibrium not fully reached). Data for one representative experiment are depicted in A0.00ZAA-202 and B. Averages and std. dev. from at least three independent 0.00ZAA-203 […]
30 -0.4Expe rime ntal data0 1:1 fi t 25 -0.20Expe rime ntal data 1:1 fi t […]
25 Expe rime ntal data 1:1 fi t Expe rime ntal data 1:1 fi t
15 Molar Ratio 25 Molar Ratio […]
as §2, with “S14:” for “S7:”, “LecA” for “LecA acylhydrazone”, “16” for “S36”, “17.” for “S31.”

[3] = individual experiments, 50 µM LecA

| Compound | Kd ([1]; Kd (ITC, average), LecA 50 µM, TBS/Ca2+ with 5% DMSO, 25 °C, average ± s.d. (16: two experiments)) | Kd ([1]; Kd (ITC, single titration), individual experiments, 50 µM LecA) | -TΔS (ITC, average) ([1]; 25 °C) | N (ITC stoichiometry, average) ([1]; 25 °C) | ΔG (ITC, average) ([1]; 25 °C) | ΔH (ITC, average) ([1]; 25 °C) | -TΔS (ITC, single titration) [1, 3] | N (ITC, single titration) [1, 3] | ΔG (ITC, single titration) [1, 3] | ΔH (ITC, single titration) [1, 3] | Kd ([2]; equilibrium Kd (steady-state SPR), values with limited reliability, equilibrium not fully reached) | Kd ([2]; kinetic Kd (SPR), single-cycle kinetics, limited reliability, suboptimal fit) | koff ([2]; read-out: koff (SPR)) | kon ([2]; read-out: kon (SPR)) | Kd ([1]; read-out: Kd (ITC, average), LecA 50 µM, TBS/Ca2+ with 5% DMSO, 25 °C, average ± s.d. (16: two experiments)) | Kd ([1]; read-out: Kd (ITC, single titration), individual experiments, 50 µM LecA) | Kd ([2]; read-out: equilibrium Kd (steady-state SPR), values with limited reliability, equilibrium not fully reached) | Kd ([2]; read-out: kinetic Kd (SPR), single-cycle kinetics, limited reliability, suboptimal fit) |
| --- | --- | --- | --- | --- | --- | --- | --- | --- | --- | --- | --- | --- | --- | --- | --- | --- | --- | --- |
| C#CCCN(Cc1ccc(NC(=O)CCc2ccc(O[C@@H]3O[C@H](CO)[C@H](O)[C@H](O)[C@H]3O)cc2)cc1)Cc1ccc(NC(=O)CCc2ccc(O[C@@H]3O[C@H](CO)[C@H](O)[C@H](O)[C@H]3O)cc2)cc1 [compound 16] | 47.2 ± 11.3 nM | 36 nM and 58.5 nM | 47.4 ± 1.4 kJ/mol | 0.47 ± 0.03 | -41.9 ± 0.6 kJ/mol | -89.3 ± 0.8 kJ/mol | 48,8 kJ/mol and 45,9 kJ/mol | 0,45 and 0,50 | -41,3 kJ/mol and -42,5 kJ/mol | -90,1 kJ/mol and -88,5 kJ/mol | 47.8 ± 44.1 nM | 9.9 ± 0.5 nM | 0.00359 ± 0.0013 s⁻¹ | 359000 ± 110000 M⁻¹ s⁻¹ |  |  |  |  |
| O=C(CCc1ccc(O[C@@H]2O[C@H](CO)[C@H](O)[C@H](O)[C@H]2O)cc1)Nc1ccc(CN(CCc2cn(CCOCCOCCOCCNC(=S)Nc3ccc4c(c3)C(=O)OC43c4ccc(O)cc4Oc4cc(O)ccc43)nn2)Cc2ccc(NC(=O)CCc3ccc(O[C@@H]4O[C@H](CO)[C@H](O)[C@H](O)[C@H]4O)cc3)cc2)cc1 [compound 17] |  |  | 42.1 ± 4.3 kJ/mol | 0.50 ± 0.03 | -41.4 ± 1.2 kJ/mol | -83.5 ± 3.2 kJ/mol | 38,3 kJ/mol and 39,8 kJ/mol and 48,2 kJ/mol | 0,46 and 0,52 and 0,51 | -42,9 kJ/mol and -41,5 kJ/mol and -39,8 kJ/mol | -81,2 kJ/mol and -81,3 kJ/mol and -88,1 kJ/mol |  |  |  |  | 64.1 ± 31.1 nM | 31.3 nM and 55.3 nM and 106 nM | 79.3 ± 24.9 nM | 19.3 ± 10.5 nM |
